# According to PubChem BioAssay (NCI):
#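 Method: 48-hour compound exposure of cells in 96-well plates, five concentrations, linear interpolation of endpoints. The concentration for 50% growth inhibition is given as GI50. TGI is the concentration that stops growth completely.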
# Key:
# Assay in all cases: inhibition of tumour cell growth, NCI panel, 48 h
# [1] = system: HCT-15 colon
# [2] = system: OVCAR-4 ovarian
# [3] = system: OVCAR-5 ovarian
# [4] = system: HS 578T breast
# [5] = system: ACHN renal
# [6] = system: U251 CNS
# [7] = system: KM12 colon
# [8] = system: MOLT-4 leukemia
# [9] = system: MCF7 breast
# [10] = system: DU-145 prostate
# [11] = system: SK-MEL-2 melanoma
# [12] = system: UACC-257 melanoma
# [13] = system: 786-0 renal
# [14] = system: HOP-92 NSCLC
# [15] = system: UO-31 renal
# [16] = system: MDA-MB-231 breast
# [17] = system: SK-MEL-28 melanoma
# [18] = system: LOX IMVI melanoma
# [19] = system: CCRF-CEM leukemia
# [20] = system: COLO 205 colon
# [21] = system: SW-620 colon
# [22] = system: K-562 leukemia
# [23] = system: UACC-62 melanoma
# [24] = system: SNB-75 CNS
# [25] = system: A498 renal
# [26] = system: SR leukemia
# [27] = system: TK-10 renal
# [28] = system: T-47D breast
# [29] = system: SF-295 CNS
# [30] = system: CAKI-1 renal
# [31] = system: IGROV1 ovarian
# [32] = system: NCI-H226 lung
# [33] = system: HT29 colon
# [34] = system: HCC-2998 colon
# [35] = system: SN12C renal
# [36] = system: A549 NSCLC
# [37] = system: SF-539 CNS
# [38] = system: SK-MEL-5 melanoma
# [39] = system: SNB-19 CNS
# [40] = system: OVCAR-8 ovarian
# [41] = system: BT-549 breast
# [42] = system: RPMI-8226 leukemia
# [43] = system: NCI-H522 lung
# [44] = system: OVCAR-3 ovarian
# [45] = system: EKVX NSCLC
# [46] = system: NCI-H460 lung
# [47] = system: M14 melanoma
# [48] = system: NCI-H23 lung
# [49] = system: SK-OV-3 ovarian
# [50] = system: HCT-116 colon
# [51] = system: PC-3 prostate
# [52] = system: HL-60(TB) leukemia
# [53] = system: SF-268 CNS
# [54] = system: HOP-62 NSCLC
# [55] = system: MALME-3M melanoma
# [56] = system: RXF 393 renal
# [57] = system: MDA-MB-468 breast
# [58] = system: MDA-MB-435
structure (smiles),measurement,setting,value
CC1=C(COCCOC(=O)c2ccc(S(=O)(=O)F)cc2)C2=C(C)C3(CC3)[C@@](C)(O)C(=O)C2=C1,GI50,[1],20.8 µM
same,TGI,[1],43.1 µM
same,GI50,[2],20.1 µM
same,TGI,[2],48.4 µM
same,GI50,[3],18.1 µM
same,TGI,[3],36.6 µM
same,GI50,[4],25.4 µM
same,TGI,[4],99.6 µM
same,GI50,[5],21.7 µM
same,TGI,[5],49.9 µM
same,GI50,[6],18.1 µM
same,TGI,[6],37.3 µM
same,GI50,[7],23.6 µM
same,TGI,[7],53.8 µM
same,GI50,[8],26.3 µM
same,TGI,[8],72.3 µM
same,GI50,[9],27 µM
same,TGI,[9],91.2 µM
same,GI50,[10],24.1 µM
same,TGI,[10],57.2 µM
same,GI50,[11],17.9 µM
same,TGI,[11],35.3 µM
same,GI50,[12],17.7 µM
same,TGI,[12],38.3 µM
same,GI50,[13],19 µM
same,TGI,[13],42.3 µM
same,GI50,[14],16.6 µM
same,TGI,[14],42.2 µM
same,GI50,[15],17 µM
same,TGI,[15],44.8 µM
same,GI50,[16],17.7 µM
same,TGI,[16],34.2 µM
same,GI50,[17],16.2 µM
same,TGI,[17],30.1 µM
same,GI50,[18],17.8 µM
same,TGI,[18],34.6 µM
same,GI50,[19],21.4 µM
same,TGI,[19],52.3 µM
same,GI50,[20],19.6 µM
same,TGI,[20],37.2 µM
same,GI50,[21],17.5 µM
same,TGI,[21],33.9 µM
same,GI50,[22],25.8 µM
same,TGI,[22],58.5 µM
same,GI50,[23],16.2 µM
same,TGI,[23],30.2 µM
same,GI50,[24],16.3 µM
same,TGI,[24],49.7 µM
same,GI50,[25],18.6 µM
same,TGI,[25],43.7 µM
same,GI50,[26],22.5 µM
same,TGI,[26],56.2 µM
same,GI50,[27],19.6 µM
same,TGI,[27],45.3 µM
same,GI50,[28],17.7 µM
same,TGI,[28],40 µM
same,GI50,[29],22.1 µM
same,TGI,[29],51.6 µM
same,GI50,[30],16 µM
same,TGI,[30],32.5 µM
same,GI50,[31],17 µM
same,TGI,[31],32.4 µM
same,GI50,[32],27.9 µM
same,TGI,[32],85.7 µM
same,GI50,[33],18.4 µM
same,TGI,[33],35.9 µM
same,GI50,[34],18.5 µM
same,TGI,[34],33.6 µM
same,GI50,[35],16.6 µM
same,TGI,[35],30.4 µM
same,GI50,[36],25.9 µM
same,TGI,[36],80.8 µM
same,GI50,[37],17.7 µM
same,TGI,[37],33.9 µM
same,GI50,[38],20 µM
same,TGI,[38],39.5 µM
same,GI50,[39],17 µM
same,TGI,[39],32.5 µM
same,GI50,[40],18.9 µM
same,TGI,[40],40.1 µM
same,GI50,[41],14.9 µM
same,TGI,[41],32.2 µM
same,GI50,[42],26 µM
same,TGI,[42],69.4 µM
same,GI50,[43],16 µM
same,TGI,[43],30.9 µM
same,GI50,[44],18.4 µM
same,TGI,[44],34.7 µM
same,GI50,[45],17.5 µM
same,TGI,[45],33.8 µM
same,GI50,[46],21.6 µM
same,TGI,[46],45.8 µM
same,GI50,[47],18.9 µM
same,TGI,[47],36.9 µM
same,GI50,[48],19.4 µM
same,TGI,[48],37.5 µM
same,GI50,[49],18.6 µM
same,TGI,[49],39.5 µM
same,GI50,[50],16.7 µM
same,TGI,[50],32.4 µM
same,GI50,[51],19.8 µM
same,TGI,[51],51.3 µM
same,GI50,[52],24.3 µM
same,TGI,[52],55.1 µM
same,GI50,[53],26 µM
same,TGI,[53],77.6 µM
same,GI50,[54],21.6 µM
same,TGI,[54],58.2 µM
same,GI50,[55],16 µM
same,TGI,[55],30.8 µM
same,GI50,[56],17.5 µM
same,TGI,[56],34.8 µM
same,GI50,[57],18.7 µM
same,TGI,[57],40.1 µM
same,GI50,[58],22.2 µM
same,TGI,[58],52.2 µM
O=C(c1ccc(O)cc1)C1[C@H](c2ccccc2Br)[C@@H](c2ccccc2)NC12C(=O)Nc1ccc(Cl)cc12 (some centres not stated),GI50,[1],6.63 µM
same,TGI,[1],16.1 µM
same,GI50,[2],4.69 µM
same,TGI,[2],13.7 µM
same,GI50,[3],6.25 µM
same,TGI,[3],13 µM
same,GI50,[4],6.2 µM
same,TGI,[4],22.6 µM
same,GI50,[5],5.39 µM
same,TGI,[5],11.8 µM
same,GI50,[6],3.46 µM
same,TGI,[6],10.8 µM
same,GI50,[7],2.91 µM
same,TGI,[7],11.1 µM
same,GI50,[8],2.2 µM
same,TGI,[8],11.4 µM
same,GI50,[9],3.17 µM
same,TGI,[9],13.7 µM
same,GI50,[10],8.01 µM
same,TGI,[10],16.5 µM
same,GI50,[11],6.49 µM
same,TGI,[11],13.8 µM
same,GI50,[12],6.51 µM
same,TGI,[12],13.5 µM
same,GI50,[13],6.57 µM
same,TGI,[13],13.7 µM
same,GI50,[14],3.03 µM
same,TGI,[14],11.6 µM
same,GI50,[15],3.26 µM
same,TGI,[15],10.9 µM
same,GI50,[16],4.68 µM
same,TGI,[16],11.8 µM
same,GI50,[17],7.51 µM
same,TGI,[17],14.7 µM
same,GI50,[18],5.53 µM
same,TGI,[18],13.1 µM
same,GI50,[19],3.49 µM
same,TGI,[19],16.5 µM
same,GI50,[20],7.35 µM
same,TGI,[20],15.7 µM
same,GI50,[21],6.73 µM
same,TGI,[21],14.8 µM
same,GI50,[22],3.75 µM
same,TGI,[22],17.9 µM
same,GI50,[23],5.71 µM
same,TGI,[23],12.2 µM
same,GI50,[24],1.44 µM
same,TGI,[24],8.12 µM
same,GI50,[25],6.57 µM
same,TGI,[25],13.9 µM
same,GI50,[26],2.01 µM
same,TGI,[26],9.34 µM
same,GI50,[27],7.76 µM
same,TGI,[27],16 µM
same,GI50,[28],5.51 µM
same,TGI,[28],14.9 µM
same,GI50,[29],4.98 µM
same,TGI,[29],12.5 µM
same,GI50,[30],2 µM
same,TGI,[30],8.85 µM
same,GI50,[31],2.3 µM
same,TGI,[31],9.11 µM
same,GI50,[32],1.57 µM
same,TGI,[32],6.22 µM
same,GI50,[33],7.36 µM
same,TGI,[33],17.9 µM
same,GI50,[34],2.42 µM
same,TGI,[34],9.01 µM
same,GI50,[35],1.7 µM
same,TGI,[35],6.32 µM
same,GI50,[36],3.43 µM
same,TGI,[36],11.2 µM
same,GI50,[37],6.11 µM
same,TGI,[37],12.8 µM
same,GI50,[38],8.68 µM
same,TGI,[38],16.8 µM
same,GI50,[39],5.97 µM
same,TGI,[39],12.6 µM
same,GI50,[40],6.72 µM
same,TGI,[40],14.6 µM
same,GI50,[41],2.19 µM
same,TGI,[41],9.37 µM
same,GI50,[42],3.29 µM
same,TGI,[42],43.8 µM
same,GI50,[43],2.23 µM
same,TGI,[43],8.45 µM
same,GI50,[44],2.76 µM
same,TGI,[44],9.34 µM
same,GI50,[45],6.65 µM
same,TGI,[45],15.4 µM
same,GI50,[46],4.72 µM
same,TGI,[46],12.7 µM
same,GI50,[47],4.77 µM
same,TGI,[47],12.4 µM
same,GI50,[48],6.65 µM
same,TGI,[48],14.4 µM
same,GI50,[49],7.69 µM
same,TGI,[49],15.4 µM
same,GI50,[50],4.12 µM
same,TGI,[50],11.4 µM
same,GI50,[51],2.8 µM
same,TGI,[51],11.3 µM
same,GI50,[52],5.86 µM
same,TGI,[52],20.3 µM
same,GI50,[53],3.99 µM
same,TGI,[53],13.4 µM
same,GI50,[54],7.08 µM
same,TGI,[54],14.9 µM
same,GI50,[55],7.89 µM
same,TGI,[55],15.3 µM
same,GI50,[56],2.86 µM
same,TGI,[56],10.5 µM
same,GI50,[57],1.61 µM
same,TGI,[57],6.96 µM
same,GI50,[58],4.78 µM
same,TGI,[58],12.9 µM
